Data on seven molecules can be found in patent EP2366702A1, “New oxadiazole derivatives” (Almirall, S.A., priority 2010, dated 2011).

This experiment addresses S1P1 (Homo sapiens, UniProt P21453). In words: 35S-GTPyS binding assay. In kind it is biochemical. Conditions: membranes; 10µM S1P used as 100% maximum efficacy; 90 min at room temperature. The method, then: The effect of the compounds was measured using a 35S-GTPyS binding assay. Briefly, membranes were incubated in a buffer containing 20 mM HEPES pH 7.4, 100 mM NaCl, 10 mM MgCl2, 10µM GDP, 50µg/ml saponin and 0.2% fatty acid-free BSA at various concentrations (0.1nM-10µM) and 0.1nM 35S-GTPyS. 10µM S1P was used as 100% maximum efficacy. The assay was incubated for 90 min at room temperature with gentle mixing, and terminated by filtrating the reaction mixture through GF/C filter plates using the Manifold Filtration System. The filters were immediately washed with sodium phosphate pH 7.4 buffers. After drying the filter plate's scintillant liquid were added to each well and 35S-GTPyS binding was measured on a Trilux Scintillation Counter.

Sequence of S1P1 (P21453 whole entry, species assumed): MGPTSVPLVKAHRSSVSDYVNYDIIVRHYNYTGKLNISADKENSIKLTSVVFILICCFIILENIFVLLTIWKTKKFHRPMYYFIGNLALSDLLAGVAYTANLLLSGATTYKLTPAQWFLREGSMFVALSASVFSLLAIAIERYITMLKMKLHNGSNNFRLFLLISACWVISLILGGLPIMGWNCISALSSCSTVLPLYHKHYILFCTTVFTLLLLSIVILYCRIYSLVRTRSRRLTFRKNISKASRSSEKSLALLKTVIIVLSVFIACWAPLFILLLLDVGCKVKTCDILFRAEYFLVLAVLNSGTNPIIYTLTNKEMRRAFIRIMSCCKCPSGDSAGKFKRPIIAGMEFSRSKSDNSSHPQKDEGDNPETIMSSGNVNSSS

The term EC50 denotes the midpoint of the concentration-response curve. Lower therefore signals an effect from little substance. With `Cc1cc(-c2noc(-c3nn(C)c4c3CCC(C)(C)C4)n2)cc(C)c1CCn1cncn1` [Example 16, 3-(3-{3,5-dimethyl-4-[2-(1H-1,2,4-triazol-1-yl)ethyl]phenyl}-1,2,4-oxadiazol-5-yl)-1,6,6-trimethyl-4,5,6,7-tetrahydro-1H-indazole], the EC50 came out at 0.0121 µM.

The molecule `Cc1cc(-c2noc(-c3nn(C)c4c3CCC(C)(C)C4)n2)cc(C)c1CCNC(=O)CN` [Example 2, N-1-(2-{2,6-dimethyl-4-[5-(1,6,6-trimethyl-4,5,6,7-tetrahydro-1H-indazol-3-yl)-1,2,4-oxadiazol-3-yl]phenyl}ethyl)glycinamide] came in with an EC50 of 0.00199 µM.

`Cc1cc(-c2noc(-c3nn(C)c4c3CCC(C)(C)C4)n2)cc(C)c1CCNCCn1cncn1` [Example 6, (2-{2,6-dimethyl-4-[5-(1,6,6-trimethyl-4,5,6,7-tetrahydro-1H-indazol-3-yl)-1,2,4-oxadiazol-3-yl]phenyl}ethyl)[2-(1H-1,2,4-triazol-1-yl)ethyl]amine]: the concentration for a half-maximal effect (EC50) was 0.0192 µM.

Regarding `Cc1cc(-c2noc(-c3nn(C)c4c3CCC(C)(C)C4)n2)cc(C)c1CCC(C)(C)O` [Example 17, 4-{2,6-dimethyl-4-[5-(1,6,6-trimethyl-4,5,6,7-tetrahydro-1H-indazol-3-yl)-1,2,4-oxadiazol-3-yl]phenyl}-2-methylbutan-2-ol], the midpoint of the response, the EC50, lay at 0.0375 µM.

For the molecule `Cc1cc(-c2noc(-c3nn(C)c4c3CCC(C)(C)C4)n2)cc(C)c1CCn1cc(C(=O)O)cn1` [Example 22, 1-(2-{2,6-dimethyl-4-[5-(1,6,6-trimethyl-4,5,6,7-tetrahydro-1H-indazol-3-yl)-1,2,4-oxadiazol-3-yl]phenyl}ethyl)-1H-pyrazole-4-carboxylic acid], a half-maximal effect (EC50) was put at 0.00637 µM.

With `Cc1cc(-c2noc(-c3nn(C)c4c3CCC(C)(C)C4)n2)cc(C)c1CCn1nccc1C(=O)O` [Example 24, 1-(2-{2,6-dimethyl-4-[5-(1,6,6-trimethyl-4,5,6,7-tetrahydro-1H-indazol-3-yl)-1,2,4-oxadiazol-3-yl]phenyl}ethyl)-1H-pyrazole-5-carboxylic acid], the midpoint of the response, the EC50, lay at 0.0103 µM.

On to `Cc1cc(-c2noc(-c3nn(C)c4c3CCC(C)(C)C4)n2)cc(C)c1CCP(=O)(O)O` [Example 21, (2-{2,6-dimethyl-4-[5-(1,6,6-trimethyl-4,5,6,7-tetrahydro-1H-indazol-3-yl)-1,2,4-oxadiazol-3-yl]phenyl}ethyl)phosphonic acid], for which the response was half-maximal at 0.00308 µM (EC50).
